Reference: US20250263370A1 (Tay Therapeutics Limited, priority 2022, published 2025)
pIC50: −log10 of the molar value. In brackets after ≈: the same amount, converted by molar mass.

Columns and labels:
[1] = biological target: BRD4 BD1 (Homo sapiens (Human), UniProt O60885); test: NanoBRET bromodomain assay, NanoLuc-BRD4-BD1 fusion in HEK293 cells; format: cell-based; conditions: top concentration 10 μM
[2] = Thermodynamic solubility in FaSSIF pH 6.5 buffer; format: physicochemical; conditions: Method 1 (UV-vis, 25° C., 24 hrs); for solubility thermodynamic at 24 h: FaSSIF buffer, 25 °C, pH 6.5, fassif, thermodynamic from solid
Protocol: FaSSIF v2 buffer is freshly prepared prior to use according to the suppliers' instructions and the pH adjusted to 6.5 using 1 M NaOH or 1 M HCl as required. From 1 mM working solution of test compound in DMSO, the λmax of the test compound is determined by scanning from 200 nm to 700 nm, in 1 nm steps with an EPOCH UV/Visible spectrophotometer (Biotek Instruments Inc.). A 12-point standard curve of compound concentration versus absorption at λmax is generated via two-fold serial dilutions of the 1 mM working solution with DMSO. Approximately 1 mg of test compound is accurately weighed into an Eppendorf tube and the appropriate volume of FaSSIF buffer is added to make a nominal concentration of 1 mg/mL. The tube is incubated on a rotator at 20 rpm, 25° C. for 24 hrs. Samples are then filtered using 0.45 μm filters (Sartorious, CAT #1776C) and the filtrate subjected to UV-vis spectroscopy analysis. The absorption at λmax is compared to the standard curve to determine the concentration of compound in solution after 24 hours.
FaSSIF buffer was prepared according to the suppliers' instructions and the pH adjusted to 6.5 using 1 M NaOH or 1 M HCl as required. […] A stir stick was added to each vial and vials sealed with a moulded PTDE/SIL 96-well plate cover. The plate was shaken at 25° C. at 1,100 rpm using an Eppendorf Thermomixer Comfort plate shaker. The plates were filtered using a vacuum manifold and diluted with a mixture of H2O and acetonitrile containing internal standard. The concentration of the test compound in the filtrate was determined by LCMS analysis with reference to the internal standards to determine the solubility in the buffer.

[3] = Sprague-Dawley rat pharmacokinetics, IV and PO cassette dosing; format: in vivo; conditions: for PO F: PO 5 mg/kg
How it was run: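 Male Sprague-Dawley rats (2 per arm) given up to 5 compounds in cassette, 1 mg/kg IV and 5 mg/kg PO, formulated in 5% DMSO/40% PEG-400/55% water. Plasma from serial blood samples was acetonitrile-precipitated and analysed by LC/MS/MS against matrix-matched standard curves.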

[4] = biological target: BRD4 BD2 (Homo sapiens (Human), UniProt O60885); test: NanoBRET bromodomain assay, NanoLuc-BRD4-BD2 fusion in HEK293 cells; conditions: for pIC50: BRD4 BD2 (IC50), NanoBRET, HEK293 cells, top concentration 10 μM; for Fold selectivity: IC50 for BRD4 BD1 divided by IC50 for BRD4 BD2, qualitative if an IC50 is at the upper limit;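 on all read-outs here: tracer displacement BRET read in transfected cells after 2 h compound exposure at 37 °C, signal in milliBRET units corrected against no-tracer background wells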
[5] = Intrinsic clearance in liver microsomes, rat; format: in vitro ADME; conditions: Method 1; for Half-Life (T1/2) (min), Rat: rat liver microsomes; for half-life at 1 μM: rat, liver microsomes, pH 7.4, rat liver microsomes, read-out: Half-Life (T1/2) (min), Rat
Protocol: (§1) From stock solution of compound on 10 mM DMSO, a working solution of 0.1 mM is prepared by diluting the compound in DMSO. 6.25 μL of a 20 mg/mL solution of microsomes in PBS pH 7.4 buffer is added to 216.25 μL PBS pH 7.4 buffer (final microsome concentration—0.5 mg/mL). 25 μL of 10 mM solution of NADPH in PBS pH 7.4 buffer is added to the incubations (final NADPH concentration—1 mM). The mixture is pre-warmed to 37° C. for 10 minutes. 2.5 μL of test compound working solution is added (final compound concentration—1 μM with 1% DMSO). Aliquots of 30 μL are taken from the reaction solution at 0.5, 5, 15, 30 and 60 minutes. The reaction was stopped by the addition of 5 volumes of cold acetonitrile with IS (100 nM alprazolam, 200 nM caffeine and 100 nM tolbutamide). Samples were centrifuged at 3, 220 g for 40 minutes. Aliquots of 100 μL of the supernatant are mixed with 100 μL of ultra-pure H2O and used for LC-MS/MS analysis. The percent compound remaining at each time point is calculated with respect to that of the 0.5 min sample. The data are analysed to calculate half-life. Control experiments are run without NADPH and blank samples are prepared using DMSO without the test compound.
(§2) A 50 mM stock solution (in DMSO) is prepared for the compound. From the stock solution, a working solution of 0.5 mM is prepared by diluting the compound in DMSO. This concentration of working solution is prepared considering a final concentration of 1 uM with 0.1% DMSO. The compound (1 μL of working solution) is spiked in PBS with pH 7.4 ([…]) at a concentration of 1 μM. Subsequently, 110 μL of 10 mM NADPH is added (as a co-factor). The sample is incubated at 37° C. for 15 min. Following this, pre-warmed liver microsomes (27.5 μL; final protein conc. 0.5 mg/mL) are added. The samples are then incubated at 37° C. Aliquots of samples are withdrawn at 0, 5, 15, 30, 45 and 60 min. The reaction is stopped by using chilled acetonitrile containing internal standard. The samples are centrifuged, and the supernatants analysed by LC-MS/MS. The percent compound remaining at each time point is calculated with respect to that of the 0 min sample. The data are then analysed to calculate half-life and intrinsic clearance (CLint). Control experiments are run without NADPH and blank samples are prepared using DMSO without the test compound.

[6] = Intrinsic clearance in liver microsomes, mouse; format: in vitro ADME; conditions: pH 7.4, Method 2, read-out: Half-Life (T1/2) (min), Mouse
Protocol: as §1, §2

pIC50 [1]	Thermodynamic Solubility FaSSIF pH 6.5 (μM) [2]	IV T1/2 ([3]; IV 1 mg/kg, Method 1)	PO F ([3]; Method 1)	pIC50 [4]	Fold selectivity [4]	Half-Life (T1/2) (min), Rat [5]	solubility thermodynamic at 24 h [2]	half-life ([3]; male, Sprague-Dawley, rat, plasma, iv, 1 mg/kg, IV 1 mg/kg, Method 1, read-out: IV T1/2 (converted))	half-life at 1 μM [5]	half-life at 1 μM [6]	SMILES
≤ 5.00	429 μM	1.2 h	31%	< 5.00	— (Fold ≥0 and ≤2)	>60 min	–	–	–	–	CNC(=O)c1[nH]c(C(=O)N[C@H]2CC[C@H](O)CC2)cc1OC(C)c1ccccc1 (single isomer, unassigned) [Example 98, N^5-(trans-4-hydroxycyclohexyl)-N^2-methyl-3-(1-phenylethoxy)-1H-pyrrole-2,5-dicarboxamide]
≤ 5.00	–	–	–	6.70 to 7.30	XX (Fold >50 and ≤200)	39 min	359 µM (≈ 143 µg/mL)	–	–	–	CNC(=O)c1[nH]c(C(=O)N[C@H]2CC[C@H](OC)CC2)cc1OC(C)c1ccccc1 (single isomer, unassigned) [Example 99, N^5-(trans-4-methoxycyclohexyl)-N^2-methyl-3-(1-phenylethoxy)-1H-pyrrole-2,5-dicarboxamide]
≤ 5.00	377 μM	–	–	< 5.00	— (Fold ≥0 and ≤2)	19 min	–	–	–	–	CNC(=O)c1[nH]c(C(=O)N[C@H]2CC[C@H](OC)CC2)cc1OC(C)c1ccccc1 (single isomer, unassigned) [Example 100, N^5-(trans-4-methoxycyclohexyl)-N^2-methyl-3-(1-phenylethoxy)-1H-pyrrole-2,5-dicarboxamide]
≤ 5.00	–	–	13%	< 5.00	— (Fold ≥0 and ≤2)	–	188 µM (≈ 64.2 µg/mL)	2.7 h	41 min	–	CNC(=O)c1[nH]c(C(=O)NC2CCC2)cc1OC(C)c1ccccc1 (single isomer, unassigned) [Example 102, N^5-cyclobutyl-N^2-methyl-3-(1-phenylethoxy)-1H-pyrrole-2,5-dicarboxamide]
≤ 5.00	–	–	–	6.70 to 7.30	XX (Fold >50 and ≤200)	–	57 µM (≈ 23.1 µg/mL)	–	19 min	–	CNC(=O)c1[nH]c(C(=O)NC2CCC(F)(F)CC2)cc1OC(C)c1ccccc1 (single isomer, unassigned) [Example 103, N^5-(4,4-difluorocyclohexyl)-N^2-methyl-3-(1-phenylethoxy)-1H-pyrrole-2,5-dicarboxamide]
≤ 5.00	47 μM	–	–	< 5.00	— (Fold ≥0 and ≤2)	10 min	–	–	–	–	CNC(=O)c1[nH]c(C(=O)NC2CCC(F)(F)CC2)cc1OC(C)c1ccccc1 (single isomer, unassigned) [Example 104, N^5-(4,4-difluorocyclohexyl)-N^2-methyl-3-(1-phenylethoxy)-1H-pyrrole-2,5-dicarboxamide]
≤ 5.00	–	–	–	6.00 to 6.70	X (Fold >2 and ≤50)	–	–	–	–	> 60 min	CNC(=O)c1[nH]c(C(=O)N[C@H]2CCOC2)cc1O[C@@H](C)c1ccccc1 [Example 113, N^2-methyl-3-((S)-1-phenylethoxy)-N^5-((S)-tetrahydrofuran-3-yl)-1H-pyrrole-2,5-dicarboxamide]
≤ 5.00	–	–	–	6.00 to 6.70	X (Fold >2 and ≤50)	–	–	–	–	> 60 min	CNC(=O)c1[nH]c(C(=O)N[C@@H]2CCOC2)cc1O[C@@H](C)c1ccccc1 [Example 114, N^2-methyl-3-((S)-1-phenylethoxy)-N^5-((R)-tetrahydrofuran-3-yl)-1H-pyrrole-2,5-dicarboxamide]
≤ 5.00	–	–	–	6.70 to 7.30	XX (Fold >50 and ≤200)	–	–	–	–	> 60 min	CNC(=O)c1[nH]c(C(=O)N[C@H]2CC[C@H](O)C2)cc1O[C@@H](C)c1ccccc1 [Example 115, N^5-((1S,3S)-3-hydroxycyclopentyl)-N^2-methyl-3-((S)-1-phenylethoxy)-1H-pyrrole-2,5-dicarboxamide]
≤ 5.00	–	–	–	6.70 to 7.30	XX (Fold >50 and ≤200)	–	–	–	–	> 60 min	CNC(=O)c1[nH]c(C(=O)NC23CC(C2)C3)cc1O[C@@H](C)c1ccccc1 [Example 117, (S)—N^5-(bicyclo [1.1.1]pentan-1-yl)-N^2-methyl-3-(1-phenylethoxy)-1H-pyrrole-2,5-dicarboxamide]
≤ 5.00	–	–	–	6.70 to 7.30	XX (Fold >50 and ≤200)	–	–	–	–	> 60 min	CNC(=O)c1[nH]c(C(=O)NC23CC(O)(C2)C3)cc1O[C@@H](C)c1ccccc1 [Example 118, (S)—N^5-(3-hydroxybicyclo [1.1.1]pentan-1-yl)-N^2-methyl-3-(1-phenylethoxy)-1H-pyrrole-2,5-dicarboxamide]
